Measurements: patent publication US6716628B2, “Chondrogenesis promoters and indolin-2-one derivatives” (Chugai Seiyaku Kabushiki Kaisha, priority 1999, dated 2004)

What was measured:
[1] = tested on: healthy rats (auricula, trachea, sternum, femoral/crural knee joint, lumbar spine disk cartilage); test: Chondrogenesis promoting effect with oral administration to healthy rats; assay type: in vivo, rat; details: oral 2 g/kg/day for 4 weeks, 6-week-old male SD rats, vs 3% gum Arabic vehicle; histology
Description: “Compound A” obtained in Synthesis Example 1 above was suspended in a 3% gum Arabic solution and orally administered to 6-week-old male SD rats (Nihon SLC Corp./Nihon Charles River Corp.) at a dosage of 2 g/kg/day for 4 weeks.
Each rat was then autopsied, the auricula, trachea, sternum, femoral/crural knee joint and lumbar spine (disk) were immersed for one week in 20% neutral buffer formalin (Wako Pure Chemical Industries, Co., Ltd.) and fixed, the sternum, femoral/crural knee joint and lumbar spine (disk) were then demineralized for 2 weeks with a 20% EDTA-4Na solution (pH 7.4, Wako Pure Chemical Industries), and observation sites were trimmed with a razor (Feather Co., Ltd.). Observation sites were trimmed from the auricula and trachea with a razor without demineralization.
Each of the trimmed tissue samples was prepared into a paraffin embedded block using an automatic embedding apparatus (Sakura Corp.) and paraffin (equivalent mixture of products by Kokusan Kagaku Corp. and Fisher Scientific Corp.). Here, a paraffin automatic dispensing embedding center (Miles Scientific Corp.) was used to fix each paraffin block in a tissue sample cassette (TISSUE-TEK Corp.)
The paraffin block was cut into 2 μm-thick sections using a microtome (Daiwa Optical Instruments Corp.) and microtome knife (Feather Co., Ltd.), and then attached onto slide glass (Matsunami Glass Corp.) and dried. […]

[2] = tested on: full thickness cartilage deficient rat models; test: Cartilage repair effect in full thickness cartilage deficient rat models; assay type: in vivo; details: 1.0 mmol/L, 50 μL intraarticular daily for 3 weeks from day 7 after operation
Experimental: A Kirschner wire with a 2.4 mm diameter (Mizuho Medical Instruments Corp.) was used to create a 2.5 mm-deep deficient area in the right femoral patellar surface, reaching to the marrow, in 10-week-old male CD rats (Nihon Charles River Co., Ltd.). From the seventh day after the operation, 50 μL of a 50% dimethylsulfoxide (DMSO) physiological saline solution as a solvent (DMSO: Junsei Chemical Corp.; physiological saline: Otsuka Pharmaceutical Corp.), or of a 1.0 mmol/L compound A solution, was administered into the right knee joint daily once a day for 3 weeks. The daily dosage of compound A was 81.7 μg.
On the day following the day of final administration, the right femur was taken, and fixed in 20% neutral buffered formaldehyde (Wako Pure Chemical Industries) for one week, and then demineralized for 2 weeks with 20% EDTA-4Na solution (pH 7.4, Wako Pure Chemical Industries), and the deficient area was trimmed with a razor (Feather Co., Ltd.). The trimmed area was subjected to paraffin blocking using an automatic embedding apparatus (Sakura Corp.) and paraffin (equivalent mixture of products by Kokusan Kagaku Corp. and Fisher Scientific Corp.). Here, a paraffin automatic dispensing embedding center (Miles Scientific Corp.) was used to fix each paraffin block in a tissue sample cassette (TISSUE-TEK Corp.)
Each paraffin block was cut into 2 μm-thick sections using a microtome (Daiwa Optical Instruments Corp.) and microtome knife (Feather Co., Ltd.), and then attached onto slide glass (Matsunami Glass Corp.) and dried. After drying, the sections were dipped in xylene to remove the paraffin, and then dipped in a step dilution series from ethanol to water and then stored in water. The sections were stained with 0.3% Safranin O (Merck Co.,.Ltd.) and observed with a microscope (magnification: 10× object lens), and a histological score was assigned according to a modification of the method of Wakitani et al. (J. Bone Joint Surg. 76-A, 579-592, 1994).

[3] = tested on: rat primary culture articular chondrocytes; test: Uptake of 35S-labeled sulfuric acid into glycosaminoglycan (cartilage matrix synthesis); assay type: cell-based; details: 10 μmol/L of compound, vs ethanol 1% final concentration control solvent
Description: Articular chondrocytes were trimmed from the femoral knee joint of 6-week-old male SD rats (Nihon SLC Corp.) using a scalpel, and then digested in 0.3% collagenase (WORTHINGTON Corp.) and cultivated (Calcif. Tissue Int. 19:179-187,1975).
The isolated articular chondrocytes were used to measure glycosaminoglycan synthesis in the cartilage matrix by measurement of the uptake of ^35S-labeled sulfuric acid (Amersham Co., Ltd.) into glycosaminoglycan. Specifically, the articular chondrocytes were cultured in a 96-well cell culturing plate (FALCON Corp.) to a cell density of 10,000 per well. […]
When the chondrocytes reached confluency, the medium was exchanged with one having a serum concentration of 0.3% and culturing was carried out overnight, after which the medium was exchanged with the same type also containing 10 μmol/L of compound A, and then after 3 hours, ^35S-labeled sulfuric acid (Amersham Co., Ltd.) was added at 0.5 μCi per well and culturing was carried out for 24 hours. […] The sample was then filtered with glass fiber filter paper (Toyo Filter Paper Corp.), the filter paper was washed 3 times with 2 mL of 1% cetylpyridinium chloride (20 mmol/L), one each was placed in a liquid scintillation counting vial (PACKARD Corp.), 10 mL of scintillator (Nacalai Tesque Corp.) was poured in, and the radioactivity was measured with a liquid scintillation counter (PACKARD Corp.).

For CCOC(CN1C(=O)[C@](CC(=O)Nc2ccc(C)cc2)(NC(=O)Nc2ccc(C)cc2)c2ccccc21)OCC [Compound A, (+)-1-(2,2-diethoxyethyl)-3-((4-methylphenyl)aminocarbonylmethyl)-3-(N′-(4-methylphenyl)ureido)indolin-2-one], which “hyaline cartilage formation (auricula, trachea, sternum, knee joint, lumbar spine disk)” value [1] is on record?
The value was “accelerated hyaline cartilage formation in all of the organs”.

And the “repair of deficient areas (Safranin O staining)” value [2]?
The value was “exhibited repair in the Safranin O-positive cartilaginous tissue”.

And the “histological score: cell morphology” value ([2]; vs solvent alone)?
The value was “significant decrease”.

What about the “histological score: thickness of cartilage” value ([2]; vs solvent alone) of the same molecule?
Its value is “significant decrease”.

What about the histological total score ([2]; vs solvent alone) of the same molecule?
Its histological total score is “significant decrease”.

And the “uptake of 35S-labeled sulfuric acid” value [3]?
The value was “significantly increased”.
